From paper PMC4485237, “SPECT/CT Imaging of High-Risk Atherosclerotic Plaques using Integrin-Binding RGD Dimer Peptides” (Scientific Reports, 2015)

Target: T1, integrin αvβ3 (Mus musculus, UniProt O54890+P43406)
T1 construct: from tissue; host or cells: aorta (atherosclerotic plaque and normal regions) of living ApoE-/- and wild-type C57BL/6J mice
T1 sequence (P43406 31-1044): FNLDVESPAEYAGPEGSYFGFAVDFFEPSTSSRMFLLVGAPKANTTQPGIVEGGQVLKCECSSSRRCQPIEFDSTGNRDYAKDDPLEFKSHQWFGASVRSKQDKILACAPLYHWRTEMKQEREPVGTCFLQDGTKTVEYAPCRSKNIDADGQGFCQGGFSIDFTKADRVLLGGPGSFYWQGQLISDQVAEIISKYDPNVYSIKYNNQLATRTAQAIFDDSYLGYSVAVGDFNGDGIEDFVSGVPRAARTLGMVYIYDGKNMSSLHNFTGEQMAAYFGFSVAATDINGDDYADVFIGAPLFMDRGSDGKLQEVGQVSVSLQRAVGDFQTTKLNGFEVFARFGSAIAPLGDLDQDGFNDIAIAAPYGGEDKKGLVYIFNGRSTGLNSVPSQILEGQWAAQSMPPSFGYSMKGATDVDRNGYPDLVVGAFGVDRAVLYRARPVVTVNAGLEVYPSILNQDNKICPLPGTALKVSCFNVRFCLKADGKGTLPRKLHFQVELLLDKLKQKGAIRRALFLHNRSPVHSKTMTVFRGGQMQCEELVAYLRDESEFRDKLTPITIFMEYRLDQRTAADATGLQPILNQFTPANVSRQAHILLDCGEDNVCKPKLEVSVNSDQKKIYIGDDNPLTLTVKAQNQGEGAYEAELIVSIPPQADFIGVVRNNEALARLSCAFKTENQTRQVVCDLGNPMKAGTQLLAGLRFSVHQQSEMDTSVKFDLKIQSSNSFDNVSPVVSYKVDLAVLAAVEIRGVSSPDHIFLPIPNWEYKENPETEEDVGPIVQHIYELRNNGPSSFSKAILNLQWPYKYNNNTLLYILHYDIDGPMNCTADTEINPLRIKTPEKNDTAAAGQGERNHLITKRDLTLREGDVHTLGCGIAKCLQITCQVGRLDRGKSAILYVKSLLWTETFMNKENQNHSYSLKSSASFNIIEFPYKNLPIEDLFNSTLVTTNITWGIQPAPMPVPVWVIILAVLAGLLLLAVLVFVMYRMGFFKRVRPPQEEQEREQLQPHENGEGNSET
T1 sequence (O54890 26-787): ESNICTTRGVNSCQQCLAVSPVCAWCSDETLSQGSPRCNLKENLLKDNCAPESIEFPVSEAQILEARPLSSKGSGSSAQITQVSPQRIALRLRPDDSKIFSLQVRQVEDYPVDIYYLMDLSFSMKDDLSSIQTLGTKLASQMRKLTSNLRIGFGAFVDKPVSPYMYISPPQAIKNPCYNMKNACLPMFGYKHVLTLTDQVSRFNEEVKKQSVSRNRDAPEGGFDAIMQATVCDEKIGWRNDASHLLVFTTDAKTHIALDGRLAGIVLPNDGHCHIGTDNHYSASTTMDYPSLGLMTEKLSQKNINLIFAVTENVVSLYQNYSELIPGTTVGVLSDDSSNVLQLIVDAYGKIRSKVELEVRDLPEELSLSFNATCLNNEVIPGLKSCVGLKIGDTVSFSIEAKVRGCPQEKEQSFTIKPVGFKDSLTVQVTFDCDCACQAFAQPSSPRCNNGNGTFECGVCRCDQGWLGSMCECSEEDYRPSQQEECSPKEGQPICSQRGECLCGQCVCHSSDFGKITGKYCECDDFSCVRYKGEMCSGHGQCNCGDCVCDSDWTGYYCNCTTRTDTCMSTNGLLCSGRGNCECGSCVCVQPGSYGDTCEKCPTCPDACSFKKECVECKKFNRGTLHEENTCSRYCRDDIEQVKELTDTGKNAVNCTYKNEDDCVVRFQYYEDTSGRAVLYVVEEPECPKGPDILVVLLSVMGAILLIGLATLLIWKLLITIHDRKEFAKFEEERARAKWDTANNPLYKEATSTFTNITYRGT
Experiment: In vivo SPECT/CT imaging and ROI quantification of radiotracer uptake in aorta of atherosclerotic (ApoE-/-, high-cholesterol diet) and wild-type mice
Conditions: 30 min post-injection, RGD and RAD tracers in the same mouse on consecutive days
Experimental: All animal experiments were carried out in accordance with the approved guidelines by the Seoul National University Bundang Hospital Animal Care and Use Committee. Apolipoprotein E knock out mice (male, n = 10) and C57BL/6J mice (male, n = 3) were purchased from the Jackson Laboratory (Bar Harbor, Maine, USA) at 8–10 weeks of age. The ApoE-/- mice were maintained on a high-cholesterol diet (0.2% total cholesterol, Harlan Laboratories, Indianapolis, IN, USA) for 40 weeks. At the time of imaging experiment, the mice had substantial atherosclerotic lesion growth resembling vulnerable plaques in humans. Wild-type mice with the C57BL/6J genetic background had been maintained on a regular diet and were used for the disease controls.
We anesthetized mice with 2% isoflurane gas anesthesia. […] The analysis software HiSPECT (Version 1.0, Bioscan Inc., Poway, CA, USA) and InVivoScope (Version 1.43, Bioscan Inc., Poway, CA, USA) were used for image reconstruction and quantification, respectively. […] Manually drawn two-dimensional regions of interest (ROIs) or three-dimensional volumes of interest (VOIs) were used to determine the accumulated radioactivity in units of %ID/g (with decay corrected to the time of injection) using 37–55.5 MBq radioactivity of ^99mTc as the reference source.

In the case of [O]=[99Tc](=[O])(=[O])[O-] [^99mTc-pertechnetate], the “SPECT uptake in aortic arch region containing atherosclerotic plaques (in words)” value is reported as “no specific accumulation”.
